Measured values from patent publication US20250332139A1, “PS[…] AND THEIR USE FOR TREATING […] AND NE[…] DISORDERS” (Transcend Therapeutics, Inc., priority 2021, published 2025).
Read-outs that look alike come from different tables or passages of the source.

Assays:
[1] = biological target: T1, serotonin transporter (SERT) (Rattus norvegicus, UniProt P31652); assay: Competitive radioligand binding, [3H]citalopram, rat brain lysates
T1 construct: from tissue; synaptosomes for uptake and release
Method: (§1) Radioligands used were: [^3H] Citalopram (PerkinElmer NET1039250UC); [^3H] Nisoxetine (PerkinElmer NET1084250UC); [^3H] WIN35428 (PerkinElmer NET1033250UC). […] Rat brains were dissected and tissue was homogenized in cold lysis buffer, centrifged at 100×g for 2 min and the supernatant was placed in a fresh tube. Supernatant was centrifuged at 13,000×g for 10 min at 4° C. to re-pellet the cell lysate. The pellet was resuspended in fresh wash buffer (50 mM Tris-HCl; 5 mM MgCl2; 5 mM EDTA) and centrifuged a third time. The pellet was then resuspended in wash buffer containing 10% sucrose as a cryoprotectant, divided into aliquots (0.3 mL) and stored at −80° C. A sample of the homogenate was analyzed for protein content using the SIGMA® BCA assay. On the day of the assay, the membrane preparation was thawed, and the pellet resuspended in final assay buffer. […] To each well was added 150 μL membranes, 50 μL of non-specific compound or buffer and 50 μL radioligand solution in buffer. […] Ki was subsequently calculated using the Cheng-Prusoff equation.

[2] = biological target: norepinephrine transporter (NET) (Rattus norvegicus, UniProt Q63380); assay: Competitive radioligand binding, [3H]nisoxetine, rat brain lysates
Method: as §1

[3] = biological target: T2, dopamine transporter (DAT) (Rattus norvegicus, UniProt P23977); assay: Competitive radioligand binding, [3H]WIN35428, rat brain lysates
T2 construct: from tissue; synaptosomes for uptake and release
Method: as §1

[4] = biological target: T3, Human serotonin 5HT2B receptor (Homo sapiens, UniProt P41595); assay: 5HT2B competitive radioligand binding; settings: ratio of Ki values
T3 construct: host or cells: receptor-expressing membranes
Method: Human serotonin 5HT2B receptor membrane preparations were divided into aliquots. On the day of the assay, membranes were diluted at 1:200 in incubation buffer. […] To each well was added 150 μL membrane preparation, 50 μL test compound, non-specific compound, or buffer alone, as well as 50 μL radioligand. The plate was incubated at 35° C. for 90 minutes with gentle agitation. […] For each concentration of drug, non-specific binding was subtracted from total binding to give specific binding. […] Ki was subsequently calculated using the ChengPrusoff equation.

[5] = test system: myelin basic protein (MBP) in the amygdala; assay: Immunohistochemistry of myelin basic protein; assay type: in vivo, rat; settings: 10 mg/kg IP, single dose, 24 h
Method: Immunohistochemistry: The in-life portion of the study was conducted at WuXi Apptec (Cranbury, NJ). Sectioning and staining of brains took place at Neuroscience Associates (NSA, Knoxville, TN). […] Brains were post-fixed in PFA before shipment to NSA for processing and staining. Hemisected brains were mounted, sectioned and stained using standard protocols with myelin-basic protein primary antibody (MBP SMI-99, 1:5000, Biolegend, San Diego, CA) and anti-mouse biotinylated secondary antibody (BA-2001, Vector Laboratories, Newark, CA). Slides were imaged using a Huron Digital Pathology TissueScope LE120 whole slide scanning system. 20× objective was used with a 0.4 μm/pixel resolution.

Sprague Dawley rats = settings: cited from earlier work
C57BL/6J mice = settings: MDMA 7.5 mg/kg 30 minutes prior to extinction training (Young 2015); cited from earlier work

T3 sequence (P41595 whole entry): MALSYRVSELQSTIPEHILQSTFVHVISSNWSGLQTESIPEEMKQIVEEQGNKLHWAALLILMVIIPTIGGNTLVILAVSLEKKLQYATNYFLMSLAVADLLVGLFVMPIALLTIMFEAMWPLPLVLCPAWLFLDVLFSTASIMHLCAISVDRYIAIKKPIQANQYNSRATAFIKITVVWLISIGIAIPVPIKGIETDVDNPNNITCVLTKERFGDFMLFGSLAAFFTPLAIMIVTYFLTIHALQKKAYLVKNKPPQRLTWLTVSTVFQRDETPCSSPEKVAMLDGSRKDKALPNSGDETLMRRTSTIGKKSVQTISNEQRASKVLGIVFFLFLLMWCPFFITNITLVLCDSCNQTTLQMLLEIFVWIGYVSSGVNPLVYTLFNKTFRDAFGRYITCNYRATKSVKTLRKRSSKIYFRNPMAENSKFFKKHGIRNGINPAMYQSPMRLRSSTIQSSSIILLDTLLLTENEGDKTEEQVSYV
T2 sequence (P23977 whole entry): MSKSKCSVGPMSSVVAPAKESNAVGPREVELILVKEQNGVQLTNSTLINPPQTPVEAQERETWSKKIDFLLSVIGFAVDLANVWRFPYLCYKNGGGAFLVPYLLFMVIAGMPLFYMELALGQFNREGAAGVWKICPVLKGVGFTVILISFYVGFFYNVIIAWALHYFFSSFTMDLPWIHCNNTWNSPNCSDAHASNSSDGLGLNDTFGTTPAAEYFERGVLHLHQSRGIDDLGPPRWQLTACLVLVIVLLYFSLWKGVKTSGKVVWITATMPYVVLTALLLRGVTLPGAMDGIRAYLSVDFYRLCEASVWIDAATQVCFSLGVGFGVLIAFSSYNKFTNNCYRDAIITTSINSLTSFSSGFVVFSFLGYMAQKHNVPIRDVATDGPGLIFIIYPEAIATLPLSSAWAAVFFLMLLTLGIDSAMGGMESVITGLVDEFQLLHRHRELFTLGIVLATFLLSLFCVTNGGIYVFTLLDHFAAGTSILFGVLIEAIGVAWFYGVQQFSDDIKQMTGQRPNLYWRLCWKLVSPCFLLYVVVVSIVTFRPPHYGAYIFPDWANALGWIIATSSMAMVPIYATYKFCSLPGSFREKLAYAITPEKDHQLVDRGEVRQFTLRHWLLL
norepinephrine transporter (NET), sequence (Q63380 1-617): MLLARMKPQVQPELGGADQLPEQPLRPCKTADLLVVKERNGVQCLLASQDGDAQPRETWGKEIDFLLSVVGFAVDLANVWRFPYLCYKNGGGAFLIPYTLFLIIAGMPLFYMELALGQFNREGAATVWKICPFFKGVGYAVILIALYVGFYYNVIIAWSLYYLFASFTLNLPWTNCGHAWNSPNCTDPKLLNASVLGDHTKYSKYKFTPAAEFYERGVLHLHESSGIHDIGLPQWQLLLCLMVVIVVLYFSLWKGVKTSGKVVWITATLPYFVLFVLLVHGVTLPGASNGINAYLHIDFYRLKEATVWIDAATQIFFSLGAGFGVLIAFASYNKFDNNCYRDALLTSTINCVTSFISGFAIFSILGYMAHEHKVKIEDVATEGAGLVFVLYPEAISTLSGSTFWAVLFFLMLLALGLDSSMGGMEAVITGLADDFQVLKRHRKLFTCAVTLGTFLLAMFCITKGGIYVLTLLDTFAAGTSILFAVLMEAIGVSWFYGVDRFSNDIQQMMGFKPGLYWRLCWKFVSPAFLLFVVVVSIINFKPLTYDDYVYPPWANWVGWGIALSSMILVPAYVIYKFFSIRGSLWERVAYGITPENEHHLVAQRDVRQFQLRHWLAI
T1 sequence (P31652 whole entry): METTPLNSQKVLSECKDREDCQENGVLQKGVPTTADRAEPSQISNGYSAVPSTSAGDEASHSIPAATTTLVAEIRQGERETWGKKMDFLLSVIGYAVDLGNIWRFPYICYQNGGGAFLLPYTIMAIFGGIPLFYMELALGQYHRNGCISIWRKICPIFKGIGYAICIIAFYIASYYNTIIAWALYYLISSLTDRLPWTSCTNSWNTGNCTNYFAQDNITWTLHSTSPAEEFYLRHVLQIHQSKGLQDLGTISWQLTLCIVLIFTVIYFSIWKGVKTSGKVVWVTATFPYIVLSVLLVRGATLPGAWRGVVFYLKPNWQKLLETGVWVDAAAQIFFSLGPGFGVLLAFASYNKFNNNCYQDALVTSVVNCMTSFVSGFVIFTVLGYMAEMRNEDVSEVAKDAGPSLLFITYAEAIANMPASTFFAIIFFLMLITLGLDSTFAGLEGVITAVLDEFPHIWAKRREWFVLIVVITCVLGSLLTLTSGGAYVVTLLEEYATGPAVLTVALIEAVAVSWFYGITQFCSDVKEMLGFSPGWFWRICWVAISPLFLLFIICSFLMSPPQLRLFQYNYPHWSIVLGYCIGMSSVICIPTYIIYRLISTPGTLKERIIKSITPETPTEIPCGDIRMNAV

For `CNC(C)Cc1ccc2c(c1)OCO2` (racemic) [MDMA, 3,4-Methylenedioxymethamphetamine], the Ki [1] was 2620 nM, the Ki [2] was 790 nM and the Ki [3] was 5110 nM. For the same compound, the “times greater affinity for the 5HT2B receptor compared with methylone” value [4] was 7.5 times, the “MBP level in basolateral and central nuclei of the amygdala vs vehicle” value [5] was “significant reduction in MBP” and the reduction in immobility (Sprague Dawley rats; MDMA 5 mg/kg, Flinders Sensitive Line rats (Majumder 2011)) was 45%. For the same compound, the reduction in immobility (Sprague Dawley rats; MDMA 5 mg/kg, Sprague Dawley rats (Majumder 2011)) was 45%, the reduction in immobility (Sprague Dawley rats; MDMA 10 mg/kg, Flinders Sensitive Line rats (Majumder 2011)) was 93% and the reduction in immobility (Sprague Dawley rats; MDMA 10 mg/kg, Sprague Dawley rats (Majumder 2011)) was 78%. For the same compound, the “reduced freezing (extinction recall) vs saline” value (C57BL/6J mice) was 35%.
